Measurements from patent US20040110775A1, “Cyclin dependent kinase inhibiting purine derivatives” (priority 2001, published 2004).
“And” between values parts separate entries of the source, which are not always exact repeats. Equal entries are not always repeated. Where two headings read alike, the source gives them in different places.

Key:
[1] = biological target: p34 cdc2(CDK1)/cyclinB; assay: CDK assay: histone H1 phosphorylation with [32P]ATP by cdc2/cyclinB kinase; format: biochemical, starfish (Marthasterias glacialis); conditions: read-out: IC50 ± SD CDK1
Experimental: Assays are available for testing the inhibitory activity of the compounds of interest against a range of CDK/cyclin complexes, including CDK1/cyclin A, CDK1/cyclin B, CDK1/cyclin F, CDK2/cyclin A, CDK2/cyclin E, CDK4/cyclin D, CDK5/35 and CDK6/cyclin D3. […]
(§1) By way of example, however, a typical protocol is summarised below.
Buffer C (containing 6 mM β-glycerophosphate, 30 mM nitrophenyl phosphate, 25 mM MOPS pH 7.0, 5 mM EGTA, 15 mM MgCl2, […] and 0.1 mM sodium orthovanadate) is made up as follows:
Affinity purified p34 cdc2(CDK1)/cyclinB from M-phase starfish (Marthasterias glacialis) in 20% glycerol is stored at −80° C. in chest freezer
Histone H1 (type III-S (Sigma) 4° C.) 5 mg/ml in buffer C.
[^32P]ATP 75 mM: Make up using (multiples of) the following proportions:
DMSO cannot exceed 1% in the assay mixture. Inhibitors are added at 1/10 final assay volume and 10× final strength. DMSO stocks must therefore be diluted to 10× final desired concentration in ≦10% DMSO, ≧90% buffer C.
All reagents (except DMSO stocks) should be kept on ice until assay initiated.
Start reaction in each tube at 30 second intervals b)y adding
5 ml [^32P]ATP vortexing and placing in rack in waterbath at 30° C.
Terminate reaction after 10 min at 30 second intervals in tubes in same order by removing […] reaction mix and spotting onto appropriately labelled filter, allowing to dry for 20-30 seconds and transferring to stirring 1% phosphoric acid.
Blank incubation is performed as above but without histone (add […] buffer C instead) Washing blank is […] ATP added directly to filter.
Wash filters 5-6 times 5 min each
Dry the filters on paper towel
Count in mini scintillation vials with 5 ml scintillant.
NB. The assay can be simplified by making up stock reaction mix as follows:
(1 part cdc2/cyclinB, 16 parts buffer C, 5 parts histone H1)×Number of assay tubes+1 and add […] to each assay tube containing […] buffer C±inhibitor.
It is still necessary, however, to make up assay blank (i.e. without histone) separately.

[2] = biological target: CDK2 (Homo sapiens, UniProt P24941); assay: Inhibition of CDK2 (CDK inhibition assay); format: biochemical; conditions: read-out: IC50 ± SD CDK2
Text: Assays are available for testing the inhibitory activity of the compounds of interest against a range of CDK/cyclin complexes, including CDK1/cyclin A, CDK1/cyclin B, CDK1/cyclin F, CDK2/cyclin A, CDK2/cyclin E, CDK4/cyclin D, CDK5/35 and CDK6/cyclin D3.
Apart from reference compounds, the compounds listed are accompanied by an NU reference or identification code number.
as §1

| Structure (SMILES) | IC50 ([1]; values given in μM) | IC50 ([2]; values given in μM) | IC50 ([2]; values in nM) | IC50 ([1]; values in nM) |
| --- | --- | --- | --- | --- |
| CN(C)C(=O)c1ccc(Nc2nc(OCC3CCCCC3)c3nc[nH]c3n2)cc1 [NU6136, 4-(6-Cyclohexylmethoxy-9H-purin-2-ylamino)-N,N-dimethylbenzamide] | 0.6 µM | 0.2 µM |  |  |
| COc1ccc(Nc2nc(OCC3CCCCC3)c3nc[nH]c3n2)cc1 [NU6100, 6-Cyclohexylmethoxy-2-(4′-methoxyanilino)purine] | 0.8 ± 0.01 µM |  |  |  |
| CCCNC(=O)c1ccc(Nc2nc(OCC3CCCCC3)c3nc[nH]c3n2)cc1 [NU6142, 4-(6-Cyclohexylmethoxy-9H-purin-2-ylamino)-N-propylbenzamide] | 0.42 µM |  | ~0.1 µM |  |
| NS(=O)(=O)c1ccc(CNc2nc(OCC3CCCCC3)c3nc[nH]c3n2)cc1 [NU6124, 4-[(6-Cyclohexylmethoxypurine-2-ylamino)methyl]benzenesulfonamide] | 17 ± 0.3 µM | 15 µM and 13 µM |  |  |
| CNS(=O)(=O)c1ccc(Nc2nc(OCC3CCCCC3)c3nc[nH]c3n2)cc1 [NU6127, 4-(6-Cyclohexylmethoxy-2-ylamino)-N-methylbenzenesulfonamide] |  |  |  | 0.009 µM and 0.01 µM |
| CC(=O)c1ccc(Nc2nc(OCC3CCCCC3)c3nc[nH]c3n2)cc1 [NU6125] | 0.5 ± 0.2 µM | 0.3 ± 0.04 µM |  |  |
| c1ccc(Nc2nc(OCC3CCCCC3)c3nc[nH]c3n2)cc1 [NU6094, 2-Anilino-6-cyclohexylmethoxypurine] | 1.6 ± 0.1 µM |  |  |  |
| COc1cccc(Nc2nc(OCC3CCCCC3)c3nc[nH]c3n2)c1 [NU6096, 6-Cyclohexylmethoxy-2-(3′-methoxyanilino)purine] | 2.2 ± 0.2 µM |  |  |  |
| N#CCc1ccc(Nc2nc(OCC3CCCCC3)c3nc[nH]c3n2)cc1 [NU6121, 6-Cyclohexylmethoxy-2-(4′-cyanomethylanilino)purine] | 0.3 ± 0.1 µM | 0.3 ± 0.03 µM |  |  |
| C[S+]([O-])c1ccc(Nc2nc(OCC3CCCCC3)c3nc[nH]c3n2)cc1 (stereo not drawn) [NU6126] | 0.2 ± 0.1 µM |  |  |  |
| O=S(=O)(NCc1ccccc1)c1ccc(Nc2nc(OCC3CCCCC3)c3nc[nH]c3n2)cc1 [NU6123, N-Benzyl-4-(cyclohexylmethoxypurine-2-ylamino)-benzenesulfonamide] | 0.7 ± 0.3 µM | 0.2 ± 0.1 µM |  |  |
| Brc1cccc(Nc2nc(OCC3CCCCC3)c3nc[nH]c3n2)c1 [NU6095, 2-(3′-Bromoanilino)-6-cyclohexylmethoxypurine] | 5.3 ± 0.8 µM |  |  |  |
| NC(=O)Cc1ccc(Nc2nc(OCC3CCCCC3)c3nc[nH]c3n2)cc1 [NU6164, 2-[4-(6-Cyclohexylmethoxy-9H-purin-2-ylamino)-phenyl]acetamide] |  |  | 0.132 ± 0.02 µM | 0.136 ± 0.022 µM |
| CCN(CC)C(=O)c1ccc(Nc2nc(OCC3CCCCC3)c3nc[nH]c3n2)cc1 [NU6140, 4-(6-Cyclohexylmethoxy-9H-purin-2-ylamino)-N,N-diethylbenzamide] | 0.7 µM |  |  |  |
| CSc1cccc(Nc2nc(OCC3CCCCC3)c3nc[nH]c3n2)c1 [NU6101, 6-Cyclohexylmethoxy-2-(3′-methylmercaptoanilino)purine] | 2.4 ± 0.2 µM |  |  |  |
| O=S(=O)(NCC(O)CO)c1ccc(Nc2nc(OCC3CCCCC3)c3nc[nH]c3n2)cc1 (stereo not drawn) [NU6153, 4-(6-Cyclohexylmethoxy-9H-purin-2-ylamino)-N-(2,3-dihydroxypropyl)benzenesulfonamide] |  |  | 0.005 ± 0.002 µM | 0.007 ± 0.001 µM |
| Fc1ccc(Nc2nc(OCC3CCCCC3)c3nc[nH]c3n2)cc1Cl [NU6119, 6-Cyclohexylmethoxy-2-(3′-chloro-4′-fluoroanilino)purine] | ~10 µM | ~10 µM |  |  |
| O=S(=O)(NC1CC1)c1ccc(Nc2nc(OCC3CCCCC3)c3nc[nH]c3n2)cc1 [NU6131, 4-(6-Cyclohexylmethoxy-9H-purin-2-ylamino)-N-cyclopropylbenzenesulfonamide] |  |  | 0.008 ± 0.0003 µM | 0.013 ± 0.005 µM |
| Fc1cccc(Nc2nc(OCC3CCCCC3)c3nc[nH]c3n2)c1 [NU6098, 6-Cyclohexylmethoxy-2-(3′-fluoroanilino)purine] | ~10 µM | ~10 µM |  |  |

| Structure (SMILES) | IC50 ([1]; values given in μM) | IC50 ([2]; values given in μM) | IC50 ([2]; values in nM) | IC50 ([1]; values in nM) |
| --- | --- | --- | --- | --- |
| CCNC(=O)c1ccc(Nc2nc(OCC3CCCCC3)c3nc[nH]c3n2)cc1 [NU6143, 4-(6-Cyclohexylmethoxy-9H-purin-2-ylamino)-N-ethylbenzamide] |  |  | > 0.1 µM | > 0.1 µM |
| O=C(O)c1ccc(Nc2nc(OCC3CCCCC3)c3nc[nH]c3n2)cc1 [NU6147, 4-(6-Cyclohexylmethoxypurin-2-ylamino)benzoic acid] | 0.24 µM |  |  |  |
| COCCNS(=O)(=O)c1ccc(Nc2nc(OCC3CCCCC3)c3nc[nH]c3n2)cc1 [NU6135, 4-(6-Cyclohexylmethoxy-9H-purin-2-ylamino)-N-(2-methoxyethyl)benzenesulfonamide] |  |  | 0.006 ± 0.0015 µM | 0.018 ± 0.004 µM |
| Fc1ccc(Nc2nc(OCC3CCCCC3)c3nc[nH]c3n2)cc1 [NU6116, 6-Cyclohexylmethoxy-2-(4′-fluoroanilino)purine] | > 10 µM | > 10 µM |  |  |
| O=S(=O)(NCCO)c1ccc(Nc2nc(OCC3CCCCC3)c3nc[nH]c3n2)cc1 [NU6144, 4-(6-Cyclohexylmethoxy-9H-purin-2-ylamino)-N-(2-hydroxyethyl)benzenesulfonamide] |  |  | 0.004 ± 0.0015 µM | 0.008 ± 0.0002 µM |
| CCCNS(=O)(=O)c1ccc(Nc2nc(OCC3CCCCC3)c3nc[nH]c3n2)cc1 [NU6133, 4-(6-Cyclohexylmethoxy-9H-purin-2-ylamino)-N-propylbenzenesulfonamide] |  |  | 0.017 ± 0.013 µM | 0.034 ± 0.004 µM |
| O=S(=O)(Nc1cccc(Cl)c1)c1ccc(Nc2nc(OCC3CCCCC3)c3nc[nH]c3n2)cc1 [NU6132, N-(3-Chloro-phenyl)-4-(6-cyclohexylmethoxy-9H-purin-2-ylamino)benzenesulfonamide] |  | 5.7 µM |  |  |
| O=S(=O)(NCC1CCCO1)c1ccc(Nc2nc(OCC3CCCCC3)c3nc[nH]c3n2)cc1 (stereo not drawn) [NU6134, 4-(6-Cyclohexylmethoxy-9H-purin-2-ylamino)-N-(tetrahydrofuran-2-ylmethyl)benzenesulfonamide] |  |  | 0.007 ± 0.0032 µM | 0.0072 µM and 0.0073 µM |
| CSc1ccc(Nc2nc(OCC3CCCCC3)c3nc[nH]c3n2)cc1 [NU6117, 6-Cyclohexylmethoxy-2-(4′-methylmercaptoanilino)purine] | > 10 µM | > 10 µM |  |  |
| CCc1cccc(Nc2nc(OCC3CCCCC3)c3nc[nH]c3n2)c1 [NU6099, 6-Cyclohexylmethoxy-2-(3′-ethylanilino)purine] | > 10 µM | > 10 µM |  |  |
| O=S(=O)(NCC(F)(F)F)c1ccc(Nc2nc(OCC3CCCCC3)c3nc[nH]c3n2)cc1 [NU6163, 4-(6-Cyclohexylmethoxy-9H-purin-2-ylamino)-N-(2,2,2-trifluoroethyl)-benzenesulfonamide] |  |  | 0.051 ± 0.016 µM | 0.066 ± 0.005 µM |
| NS(=O)(=O)c1ccc(Nc2nc(OCC3CC=CCC3)c3nc[nH]c3n2)cc1 (stereo not drawn) [NU6162, 4-[6-(Cyclohex-3-enylmethoxy)-9H-purin-2ylamino]-benzenesulfonamide] |  |  | 0.01 ± 0.001 µM | 0.021 ± 0.004 µM |
| CNC(=O)c1ccc(Nc2nc(OCC3CCCCC3)c3nc[nH]c3n2)cc1 [NU6139, 4-(6-Cyclohexylmethoxy-9H-purin-2-ylamino)-N-methylbenzamide] | 0.7 µM | 0.3 µM |  |  |
| O=S(=O)(Nc1nccs1)c1ccc(Nc2nc(OCC3CCCCC3)c3nc[nH]c3n2)cc1 [NU6145, 4-(6-Cyclohexylmethoxy-9H-purin-2-ylamino)-N-thiazol-2-ylbenzenesulfonamide] |  |  | 0.024 µM | 0.037 µM |
| COc1cc(Nc2nc(OCC3CCCCC3)c3nc[nH]c3n2)ccc1S(N)(=O)=O [NU6161, 4-[6-Cyclohexylmethoxy-9H-purin-2-ylamino]-benzene(3′-methoxy)sulfonamide] |  |  |  | 0.103 ± 0.004 µM |
| COC(=O)c1ccc(Nc2nc(OCC3CCCCC3)c3nc[nH]c3n2)cc1 [NU6118, Methyl 4-N-(6′-Cyclohexylmethoxypurin-2′-yl)aminobenzoate] | ~10 µM | ~10 µM |  |  |
| CCNS(=O)(=O)c1ccc(Nc2nc(OCC3CCCCC3)c3nc[nH]c3n2)cc1 [NU6129, 4-(6Cyclohexylmethoxy-2-ylamino)-N-ethylbenzenesulfonamide] |  |  | 0.008 ± 0.002 µM | 0.007 µM and 0.009 µM |
| OCc1cccc(Nc2nc(OCC3CCCCC3)c3nc[nH]c3n2)c1 [NU6151, [3-(6-Cyclohexylmethoxy-9H-purin-2-ylamino)phenyl]methanol] | 0.3 ± 0.01 µM |  |  |  |
| CN(C)S(=O)(=O)c1ccc(Nc2nc(OCC3CCCCC3)c3nc[nH]c3n2)cc1 [NU6128, 4-(6-Cyclohexylmethoxy-2-ylamino)-N,N-dimethylbenzenesulfonamide] |  |  |  | 0.077 ± 0.005 µM |
